In PubChem BioAssay (NCI):
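How tested: cells in 96-well plates exposed to compound for 48 hours at five concentrations. GI50 marks 50% less growth. Definition used: TGI = concentration required for complete inhibition of growth.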

Key:
Experiment in all cases: NCI-60 cell line screen, 48 h
MCF7 breast = tested on: MCF7 breast
HS 578T breast = tested on: HS 578T breast
T-47D breast = tested on: T-47D breast
SK-MEL-5 melanoma = tested on: SK-MEL-5 melanoma
SNB-75 CNS = tested on: SNB-75 CNS
HT29 colon = tested on: HT29 colon
UACC-257 melanoma = tested on: UACC-257 melanoma
MDA-MB-435 = tested on: MDA-MB-435
CCRF-CEM leukemia = tested on: CCRF-CEM leukemia
MALME-3M melanoma = tested on: MALME-3M melanoma

Compound	GI50 (MCF7 breast) [µM]	TGI (MCF7 breast) [µM]	GI50 (HS 578T breast) [µM]	TGI (HS 578T breast) [µM]	GI50 (T-47D breast) [µM]	TGI (T-47D breast) [µM]	GI50 (SK-MEL-5 melanoma) [µM]	TGI (SK-MEL-5 melanoma) [µM]	GI50 (SNB-75 CNS) [µM]	TGI (SNB-75 CNS) [µM]	GI50 (HT29 colon) [µM]	TGI (HT29 colon) [µM]	GI50 (UACC-257 melanoma) [µM]	TGI (UACC-257 melanoma) [µM]	GI50 (MDA-MB-435) [µM]	TGI (MDA-MB-435) [µM]	GI50 (CCRF-CEM leukemia) [µM]	TGI (CCRF-CEM leukemia) [µM]	TGI (MALME-3M melanoma) [µM]	GI50 (MALME-3M melanoma) [µM]
O=[N+]([O-])c1ccccc1/C=N\NC(=S)N/N=C/c1ccccc1[N+](=O)[O-]	3.12	> 100	3.61	33.6	4.93	> 100	4.21	> 100	2.21	8.75	4.04	> 100	10.3	> 100	0.426	3.62	4.19	> 100	–	–
N[C@H]1CCC[C@@H](O)C1O (some centres not stated)	–	> 100	–	> 100	–	> 100	–	> 100	–	> 100	–	> 100	–	> 100	–	> 100	–	> 100	> 100	–
Cc1cc(NS(=O)(=O)c2ccc(NC(=O)c3ccc(Cl)c4c(Nc5ccc(S(=O)(=O)Nc6cc(C)on6)cc5)c5ccccc5nc34)cc2)no1	–	–	–	–	–	–	–	55.4	–	24.5	–	41.6	–	43.5	–	–	–	51.8	48.7	–
CC(C)(C)c1cc(C2c3cc4c(cc3OC(O)(CO)C2C(=O)O)OCO4)cc(C(C)(C)C)c1O (configuration not stated) (tested in a mixture with another compound)	–	–	–	–	–	–	–	23.9	–	22.8	–	27.2	–	26.4	–	–	–	21.9	37.3	–
CC(C)(C)C1=CC(=N/N=c2\scc(-c3ccccc3)n2Cc2ccccc2)C=C(C(C)(C)C)C1=O	–	–	–	–	–	–	–	> 100	–	> 100	–	> 100	–	> 100	–	–	–	> 100	> 100	–
N#CN1CC[C@@H]2CC3(CCC2C1)OCCO3 (some centres not stated)	–	–	–	–	–	–	–	> 100	–	> 100	–	> 100	–	> 100	–	–	–	> 100	> 100	–
COc1ccc2nc3cc(Cl)ccc3c(Sc3ccc(N)cc3)c2c1	–	–	–	–	–	–	–	25.3	–	23.2	–	–	–	26.1	–	–	–	18.7	30.1	–
C=CC[P@]1(=O)O[C@H](c2ccccc2)C(C)N1C(C)C (some centres not stated)	–	–	–	–	–	–	–	> 100	–	> 100	–	> 100	–	> 100	–	–	–	> 100	> 100	–
CC1=CC(=O)NP(=O)(Oc2ccc(Cl)cc2)N1 (configuration not stated)	–	–	–	–	–	–	–	> 100	–	> 100	–	> 100	–	> 100	–	–	–	> 100	> 100	–
O=C(Nc1cc(Cl)c(I)c(Cl)c1)C(F)(F)F	–	> 100	–	75.7	–	97.6	–	36.1	–	> 100	–	37.4	–	> 100	–	> 100	–	66.4	–	–
CC(=O)/C=C1\CC(=O)N(C)c2ccccc2N1	–	–	–	–	–	–	–	2.05	–	0.953	–	> 100	–	–	–	–	–	> 100	> 100	–
CCN(Cc1ccc(Cl)c(Cl)c1)c1ccc2nc(N)nc(N)c2c1C	0.0189	1.52	–	–	0.67	2.71	< 0.01	1.45	0.0945	2.01	< 0.01	1.27	1.25	2.72	< 0.01	1.49	0.0252	6.3	2.6	1.17
O=S(=O)(F)Cc1ccccc1	–	> 100	–	–	–	–	–	> 100	–	> 100	–	> 100	–	> 100	–	> 100	–	> 100	70	–
O=C(NCCCN1CCN(CCCNC(=O)c2cccc3ccccc23)CC1)c1cccc2ccccc12	–	–	–	–	–	–	–	> 100	–	41.7	–	> 100	–	> 100	–	–	–	> 100	> 100	–
COc1ccc(/C=C\c2cc(OC)c(OC)c(OC)c2)cc1NC(=O)/C=C/c1ccc(OC)c(OC)c1	3.22	> 100	–	–	5.98	> 100	2.89	> 100	–	–	3.39	> 100	> 100	> 100	0.348	1.71	4.19	> 100	> 100	> 100
COCN1COCN(C)C1=O	–	–	–	–	–	–	–	> 100	–	> 100	–	> 100	–	> 100	–	–	–	> 100	> 100	–
Cn1cc(-c2ccc3c4ccccc4n(C)c3c2)c2ccccc21	–	–	–	–	–	–	–	> 100	–	> 100	–	> 100	–	> 100	–	–	–	> 100	> 100	–
COC1CCCc2c(OC(C)=O)ccc(OC(C)=O)c21 (configuration not stated)	–	–	–	–	–	–	–	> 100	–	> 100	–	–	–	–	–	–	–	–	> 100	–
CN(c1cccc(C(=O)O)c1)c1cc(O/N=[N+](\[O-])N(C)C)c([N+](=O)[O-])cc1[N+](=O)[O-]	59.8	> 100	> 100	> 100	–	–	> 100	> 100	> 100	> 100	> 100	> 100	> 100	> 100	> 100	> 100	–	–	–	–
COc1ccc(-n2cc(-c3cc(OC)c(OC)c(OC)c3)nc2SCc2cccc(C#N)c2)cc1OC	66.2	> 100	62.2	> 100	> 100	> 100	71.8	> 100	0.924	> 100	14.1	> 100	–	–	90.5	> 100	> 100	> 100	> 100	> 100
CC(C)(C)OC(=O)N(CCCCN(CCCn1c2c(c3ccccc3c1=O)C(=O)c1ccccc1-2)C(=O)OC(C)(C)C)CCCn1c2c(c3ccccc3c1=O)C(=O)c1ccccc1-2	–	–	13.1	59.6	> 100	> 100	48.5	> 100	> 100	> 100	54.6	> 100	–	–	68.7	> 100	–	–	> 100	> 100
CC(=O)OC1(Sc2ccccc2)CC2[C@H]3COC(C)(C)O[C@H]3CC[C@@]2(C)CC1=O (some centres not stated)	–	–	–	–	–	–	–	70	–	81.4	–	> 100	–	> 100	–	–	–	–	> 100	–
